This is an account of results in ChEMBL document CHEMBL1201862, “PubChem BioAssay data set” (2004).

Assay in all cases: growth of human tumour cells (NCI), 48 h
Assay [1] relates to UACC-62.
Assay [2] concerns RXF 393.
Assay [3] concerns K562.
Assay [4] concerns IGROV-1.
Assay [5] relates to 786-0.
Assay [6] deals with T47D.
Assay [7] deals with COLO 205.
The subject of assay [8] is NCI-H460.
Assay [9] concerns HCC 2998.
Assay [10] concerns OVCAR-8.
Assay [11] has as its system SN12C.
Assay [12] concerns SW-620.
The subject of assay [13] is DU-145.
In assay [14] the test system is UACC-257.
Assay [15] concerns HOP-62.
The test system of assay [16] is PC-3.
The subject of assay [17] is SNB-75.
Assay [18] has as its system MOLT-4.
Assay [19] has as its system HOP-92.

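Cells were grown in 96-well plates and exposed to each compound for 48 hours at five concentrations; endpoints were interpolated linearly between bracketing concentrations, or set to the highest concentration if not reached. GI50 = concentration required for 50% inhibition of growth.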 Calls of active or inactive are those of the source. Rule as the data show it: active = GI50 up to about 1.1 µM and inactive = higher.

On to `Brc1cccc[n+]1-c1ccc2cc(-[n+]3ccccc3Br)ccc2c1`, for which the GI50 in [1] is 45.1 µM (inactive); in assay [2], 32 µM (inactive); in assay [3], 59.2 µM (inactive); in assay [4], 11.4 µM (inactive); in [5], 26.4 µM (inactive); in assay [6], 22.3 µM (inactive). Moreover, the GI50 in [7] was 31 µM (inactive); in [8], 30.2 µM (inactive); in [9], 46.1 µM (inactive); in assay [10] it was 43 µM (inactive); in assay [11], 42.4 µM (inactive); in assay [12], 44.5 µM (inactive). The GI50 in assay [13] was 14.8 µM (inactive); in assay [14] it was > 100 µM (inactive); in assay [15] it was 27.6 µM (inactive); in assay [16], > 100 µM (inactive).
With `NC(C(=O)O)C(O)c1c[nH]cn1` (stereo not given), the GI50 in assay [1], in [2], in assay [3], in assay [4], in [5] and in assay [17] was > 100 µM (inactive) in each case. In addition, the GI50 in assay [6], in [7], in [8], in assay [18], in assay [10] and in [11] was > 100 µM (inactive) each time. In addition, the GI50 in assay [12], in [13], in assay [14], in [15], in assay [19] and in [16] was > 100 µM (inactive) each time.
For `O=C(CC(C(=O)c1cccs1)c1cccs1)c1ccsc1` (stereo not given), the GI50 in assay [1] was 37.5 µM (inactive); in [3] it was 46 µM (inactive); in assay [4] it was > 100 µM (inactive); in assay [5] it was 50.5 µM (inactive); in assay [17], 40.2 µM (inactive); in assay [6] it was 39.6 µM (inactive). The GI50 in [7] is 45.3 µM (inactive); in [8], 42.4 µM (inactive); in [18] it was 46.2 µM (inactive); in assay [9], 57.4 µM (inactive); in assay [10], 59.2 µM (inactive); in assay [11] it was 39.4 µM (inactive). Also, the GI50 in assay [12] was 44.1 µM (inactive); in [13] it was > 100 µM (inactive); in [14], 60 µM (inactive); in assay [15], 73.6 µM (inactive); in assay [16], 35.8 µM (inactive).
Consider `COc1ccc(CC2c3cc(OC)c(OC)c(OC)c3CC[N+]2(C)C)cc1Oc1ccc(CC2c3cc4c(c(OC)c3CC[N+]2(C)C)OCO4)cc1` (stereo not given), for which the GI50 was > 100 µM (inactive) in assay [1]; > 100 µM (inactive) in assay [3]; > 100 µM (inactive) in assay [4]; > 100 µM (inactive) in [5]; 91.6 µM (inactive) in assay [17]; > 100 µM (inactive) in [6]. Besides, the GI50 in [7], in [8], in assay [18], in assay [9], in assay [10] and in [11] was > 100 µM (inactive) each time. Further, the GI50 in [12], in assay [13], in assay [14], in assay [19] and in assay [16] was > 100 µM (inactive) throughout.
`COc1ccc(-c2c3c(n(C4OC(COC(C)=O)C(OC(C)=O)C(OC(C)=O)C4OC(C)=O)c(=S)c2C#N)CCCC3)cc1` (stereo not given): the GI50 in assay [1] is 20 µM (inactive); in [2] it was 33.7 µM (inactive); in assay [3], 65.6 µM (inactive); in assay [4] it was 28.8 µM (inactive); in [5], > 100 µM (inactive); in assay [17], 16.4 µM (inactive). The GI50 in assay [6] was 34.3 µM (inactive); in [7], 69.5 µM (inactive); in assay [8] it was 39.8 µM (inactive); in [18] it was 27.6 µM (inactive); in [9] it was > 100 µM (inactive); in [10], 69 µM (inactive). Also, the GI50 in assay [11] is > 100 µM (inactive); in assay [12], 51.5 µM (inactive); in [13] it was 44.9 µM (inactive); in assay [14] it was > 100 µM (inactive); in [15] it was 89.3 µM (inactive); in assay [16] it was 19.5 µM (inactive).
Turning to `Cc1ccc(/C=c2\cc3oc(=O)c4cccc(c4-3)c2=O)cc1`, the GI50 is > 100 µM (inactive) in [1]; 33.3 µM (inactive) in [3]; 88.3 µM (inactive) in assay [4]; > 100 µM (inactive) in [5]; > 100 µM (inactive) in assay [17]; > 100 µM (inactive) in [6]. The GI50 in [7] was > 100 µM (inactive); in assay [8], > 100 µM (inactive); in assay [18], > 10 µM (inactive); in [9], > 100 µM (inactive); in [10], 97.7 µM (inactive); in assay [11], > 100 µM (inactive). Moreover, the GI50 in assay [12], in assay [13], in [14], in [15], in [19] and in [16] was > 100 µM (inactive) throughout.
For `O=C(OC1=CCN(Br)C1=O)C1=C(O)C(=O)N(Br)C1`, the GI50 is 18.1 µM (inactive) in [1]; 20 µM (inactive) in assay [2]; 29.1 µM (inactive) in [3]; 39.1 µM (inactive) in assay [4]; 16.7 µM (inactive) in assay [5]; 24.3 µM (inactive) in assay [17]. Further, the GI50 in assay [6] was 18.4 µM (inactive); in assay [7], 23.7 µM (inactive); in assay [8], 38.3 µM (inactive); in [18], 22.8 µM (inactive); in assay [9] it was 53.8 µM (inactive); in assay [10], 31.3 µM (inactive). For the same molecule, the GI50 in [11] was 17.3 µM (inactive); in [12] it was 26.5 µM (inactive); in assay [13], 53.2 µM (inactive); in [14] it was 26.9 µM (inactive); in assay [15], 24 µM (inactive); in assay [16], 29.3 µM (inactive).
Consider `COC(=O)c1ccc(/C=C(\c2ccc([N+](=O)[O-])o2)S(=O)(=O)c2ccc(NC(C)=O)cc2)o1`, for which the GI50 was 2 µM (inactive) in assay [1]; 3.69 µM (inactive) in assay [2]; 4.15 µM (inactive) in assay [3]; 12.9 µM (inactive) in assay [4]; 3.43 µM (inactive) in assay [5]; 19.3 µM (inactive) in [17]. For the same molecule, the GI50 in assay [6] is 18.4 µM (inactive); in [7], 2.9 µM (inactive); in assay [8], 18.5 µM (inactive); in assay [18] it was 2.83 µM (inactive); in assay [10] it was 3.42 µM (inactive); in assay [11] it was 0.0579 µM (active). In addition, the GI50 is 3.63 µM (inactive) in assay [12]; 10.1 µM (inactive) in assay [13]; 1.98 µM (inactive) in [14]; 14.4 µM (inactive) in [15]; 10.3 µM (inactive) in [19]; 14.8 µM (inactive) in assay [16].
With `COP(=O)(OC)C(Nc1ccc(Cc2ccc(NC(c3ccco3)P(=O)(OC)OC)cc2)cc1)c1ccco1` (stereo not given), the GI50 in [1] is 17 µM (inactive); in [2], 5.83 µM (inactive); in assay [3] it was > 100 µM (inactive); in assay [4], 31.4 µM (inactive); in assay [5] it was 13.8 µM (inactive); in assay [17] it was 3.33 µM (inactive). For the same molecule, the GI50 is 67.1 µM (inactive) in assay [6]; > 100 µM (inactive) in [7]; > 100 µM (inactive) in assay [8]; > 100 µM (inactive) in assay [18]; 65.5 µM (inactive) in assay [10]; 97.1 µM (inactive) in assay [11]. Moreover, the GI50 is > 100 µM (inactive) in assay [12]; > 100 µM (inactive) in assay [13]; > 100 µM (inactive) in [14]; 4.62 µM (inactive) in assay [15]; 6.47 µM (inactive) in assay [19]; 52.7 µM (inactive) in assay [16].
In the case of `Cc1ccc([N+](=O)[O-])cc1S(=O)(=O)Nc1ccc(C2=NN(c3ccc([N+](=O)[O-])cc3[N+](=O)[O-])C(c3cccs3)C2)cc1` (stereo not given), the GI50 was 18.6 µM (inactive) in [2]; 17.2 µM (inactive) in assay [3]; 16.2 µM (inactive) in [4]; 17.1 µM (inactive) in assay [5]; 19.5 µM (inactive) in [17]; 16.9 µM (inactive) in assay [6]. Besides, the GI50 was 23.2 µM (inactive) in assay [7]; 13.9 µM (inactive) in [18]; 22 µM (inactive) in assay [10]; 18 µM (inactive) in [11]; 35.7 µM (inactive) in assay [12]; 25.8 µM (inactive) in assay [13]. Also, the GI50 in assay [14] is 16 µM (inactive); in assay [15], 19.2 µM (inactive); in assay [19], 16.1 µM (inactive); in assay [16], 25.9 µM (inactive).
In the case of `Oc1cc(O)c2c(c1)OC(c1ccc(O)c(O)c1)C(O)C2c1c(O)cc(O)c2c1OC(c1ccc(O)c(O)c1)C(O)C2` (stereo not given), the GI50 in assay [1], in assay [2], in assay [4], in [5], in assay [17] and in [6] was > 100 µM (inactive) in each case. Also, the GI50 in [7] is > 100 µM (inactive); in assay [8], 85.1 µM (inactive); in [10], > 100 µM (inactive); in [11] it was > 100 µM (inactive); in assay [12] it was 45.4 µM (inactive); in [13], > 100 µM (inactive). In addition, the GI50 in assay [14], in [15], in assay [19] and in [16] was > 100 µM (inactive) in each case.
